Numbered stars: 1 amine (or outer) side, 2 acyl side, 3 side chain; on linkers, the order of the positions; unused ones are H or OH. Bridge positions count the residues as written; N and C are the ends. Square brackets hold non-standard residues; d marks the D form. Peptide text beside a SMILES is read from it. * marks the point of attachment. DOTA = O=C(O)CN1CCN(CC(=O)O)CCN(CC(=O)*)CCN(CC(=O)O)CC1; TATA = O=C(CC[*:1])N1CN(C(=O)CC[*:2])CN(C(=O)CC[*:3])C1; Hyp = O=C(O)[C@@H]1C[C@@H](O)CN1; hArg = N=C(N)NCCCC[C@H](N)C(=O)O; Cba = N[C@@H](CC1CCC1)C(=O)O; βAla = NCCC(=O)O; Sar = CNCC(=O)O
Experiments:
Human EphA2 = biological target: T1, Human EphA2 (Homo sapiens, UniProt P29317); experiment: SPR binding to human EphA2
T1 construct: Human EphA2 (residues 27-529) was cloned into pEXPR-IBA44; made in house; host or cells: HEK293 f/s cells
T1 sequence (P29317 27-529): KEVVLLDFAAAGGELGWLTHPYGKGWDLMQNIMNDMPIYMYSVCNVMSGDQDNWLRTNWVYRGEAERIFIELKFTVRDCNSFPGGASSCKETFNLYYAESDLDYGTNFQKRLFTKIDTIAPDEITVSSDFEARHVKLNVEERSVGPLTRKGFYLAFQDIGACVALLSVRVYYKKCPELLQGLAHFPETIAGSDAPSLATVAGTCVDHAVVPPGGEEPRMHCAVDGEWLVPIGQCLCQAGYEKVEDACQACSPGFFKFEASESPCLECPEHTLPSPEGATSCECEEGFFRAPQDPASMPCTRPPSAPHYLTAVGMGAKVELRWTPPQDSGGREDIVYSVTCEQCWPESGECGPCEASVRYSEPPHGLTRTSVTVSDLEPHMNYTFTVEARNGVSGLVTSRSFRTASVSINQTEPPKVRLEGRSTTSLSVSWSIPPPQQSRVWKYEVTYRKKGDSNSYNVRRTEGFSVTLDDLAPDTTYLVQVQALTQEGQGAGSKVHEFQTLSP
Method: Human EphA2 (residues 27-529) was cloned into pEXPR-IBA44 between the 5' NheI and 3' BsaI sites to make constructs expressing a BM40 signal sequence and C-terminal 6xHIS tag. For the expression and purification of the protein, HEK293 f/s cells at 1 x 10^6/mL in freestyle media (Thermo Fisher) were transfected with 1 µg DNA per million cells by PEI either 2:1 or 3:1 PEI:DNA ratio. On day 2 valproic acid was added to a 2.2 mM concentration. The supernatant was harvested 5 days post transfection and loaded on a 1 ml Ni-NTA agarose resin (Thermo Fisher) (wash buffer: 20 mM HEPES pH 7.6, 0.5 M NaCl, 5 mM imidazole, 0.01% Tween-20 buffer; elution buffer: 20 mM HEPES pH 7.6, 0.5 M NaCl, 300 mM imidazole, 0.01% Tween-20). The protein was concentrated to a volume of 2 mL, loaded onto an S-200 Superdex column (GE Healthcare) and eluted with 20 mM HEPES pH 7.6, 150 mM NaCl, 0.01% Tween-20 at a flow rate of 1 mL/min. Fractions were collected and those containing human EphA2 protein were concentrated for further use.
(§1) SPR experiments were performed on a Biacore 8K+ (Cytiva Life Sciences, USA) instrument, with methods matched for both human and mouse EphA2 protein. Protein was captured on to a Cytiva NTA sensor chip (Cytiva Life Sciences), via the expressed His-tag; this was followed by primary amine coupling chemistry to covalently immobilize the protein to the chip at 25°C. Initially the surface was injected with 0.5 mM NiCl2 for 2 minutes, followed by activation of the carboxymethyl dextran surface for 7 minutes using an injection of a 1:1 ratio of 0.4 M 1-ethyl-3-(3-dimethylaminopropyl) carbodiimide hydrochloride (EDC)/0.1 M N-hydroxy succinimide (NHS) at a flow rate of 10 µL/min.
Human EphA2 protein was captured to the Ni-NTA surface to a level of 200-300 RU and Mouse EphA2 to 500-800 RU; the residual activated groups were then blocked with a 7 minute injection of 1 M ethanolamine (pH 8.5):HBS-N (1:1). Finally, the Ni-NTA surface was chelated with a 1-minute injection of 350 mM EDTA.
Peptide was prepared in PBS/0.05% Tween 20 with a final DMSO concentration of 0.5%. The top peptide concentration was 100 or 500 nM and 5 further 3-fold dilutions. The peptide was titrated over the chip using single cycle kinetics at 25°C at a flow rate of 75 µL/min with 60 second association and 4000 second dissociation. All data were double referenced for blank injections and reference surface using standard processing procedures. Data was characterized with a 1:1 kinetic binding model to determine kinetic rate constants ka (M^-1s^-1) and kd (s^-1) and equilibrium dissociation constant KD (nM). All data processing was performed using Cytiva Insight Evaluation (Cytiva Life Sciences, USA).

Human EphA3 = biological target: T2, Human EphA3 (Homo sapiens, UniProt P29320); experiment: SPR homologue panel, EphA3; conditions: human EphA3, n=1; read-out: KD, no binding up to
T2 construct: purchased R&D Systems 644-A3
T2 sequence (P29320 with tags, fused parts or gaps limits assumed): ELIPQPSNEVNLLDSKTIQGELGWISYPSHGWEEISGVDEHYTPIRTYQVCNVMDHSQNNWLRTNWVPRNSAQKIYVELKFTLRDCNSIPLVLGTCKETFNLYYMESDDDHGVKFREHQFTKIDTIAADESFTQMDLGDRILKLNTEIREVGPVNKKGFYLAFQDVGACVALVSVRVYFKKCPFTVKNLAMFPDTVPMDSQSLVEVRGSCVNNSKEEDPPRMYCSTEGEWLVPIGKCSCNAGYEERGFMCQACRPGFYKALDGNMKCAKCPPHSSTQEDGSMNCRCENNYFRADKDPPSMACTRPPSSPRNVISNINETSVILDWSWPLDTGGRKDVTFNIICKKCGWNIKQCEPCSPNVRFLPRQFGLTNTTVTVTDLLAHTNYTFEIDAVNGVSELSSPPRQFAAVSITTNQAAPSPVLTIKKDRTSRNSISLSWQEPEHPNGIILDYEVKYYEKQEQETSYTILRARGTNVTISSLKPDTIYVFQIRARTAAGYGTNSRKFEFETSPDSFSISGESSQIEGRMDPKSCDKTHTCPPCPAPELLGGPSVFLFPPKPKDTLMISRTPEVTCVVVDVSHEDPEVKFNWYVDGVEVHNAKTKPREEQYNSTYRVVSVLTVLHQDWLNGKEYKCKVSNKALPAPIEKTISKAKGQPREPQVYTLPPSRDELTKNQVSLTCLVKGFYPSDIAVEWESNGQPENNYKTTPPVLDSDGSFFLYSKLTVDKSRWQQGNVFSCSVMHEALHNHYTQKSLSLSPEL
Method: (§2) The commercial source details of the recombinant proteins used in SPR were as follows: Human proteins: EphA1 (15789-H02H, Sino Biological), EphA3 (644-A3, R&D Systems), EphA6 (5606-A6, R&D Systems), EphA7 (6756-A7, R&D Systems). Mouse proteins: Mouse EphA2 was purchased from R&D Systems (Product number 639-A2). Mouse EphA2-Fc was resuspended as per manufacturer's recommendations and material was passed through a SuperdexS200 column to remove aggregates.
as §1
(§3) Peptide was prepared in PBS/0.05% Tween 20 with a final DMSO concentration of 0.5%. The top peptide concentration was 100 or 500 nM and 5 further 3-fold dilutions. […]

Human EphA6 = biological target: T3, Human EphA6 (Homo sapiens, UniProt Q9UF33); experiment: SPR homologue panel, EphA6; conditions: human EphA6, n=1; read-out: KD, no binding up to
T3 construct: purchased R&D Systems 5606-A6
T3 sequence (Q9UF33 23-1036): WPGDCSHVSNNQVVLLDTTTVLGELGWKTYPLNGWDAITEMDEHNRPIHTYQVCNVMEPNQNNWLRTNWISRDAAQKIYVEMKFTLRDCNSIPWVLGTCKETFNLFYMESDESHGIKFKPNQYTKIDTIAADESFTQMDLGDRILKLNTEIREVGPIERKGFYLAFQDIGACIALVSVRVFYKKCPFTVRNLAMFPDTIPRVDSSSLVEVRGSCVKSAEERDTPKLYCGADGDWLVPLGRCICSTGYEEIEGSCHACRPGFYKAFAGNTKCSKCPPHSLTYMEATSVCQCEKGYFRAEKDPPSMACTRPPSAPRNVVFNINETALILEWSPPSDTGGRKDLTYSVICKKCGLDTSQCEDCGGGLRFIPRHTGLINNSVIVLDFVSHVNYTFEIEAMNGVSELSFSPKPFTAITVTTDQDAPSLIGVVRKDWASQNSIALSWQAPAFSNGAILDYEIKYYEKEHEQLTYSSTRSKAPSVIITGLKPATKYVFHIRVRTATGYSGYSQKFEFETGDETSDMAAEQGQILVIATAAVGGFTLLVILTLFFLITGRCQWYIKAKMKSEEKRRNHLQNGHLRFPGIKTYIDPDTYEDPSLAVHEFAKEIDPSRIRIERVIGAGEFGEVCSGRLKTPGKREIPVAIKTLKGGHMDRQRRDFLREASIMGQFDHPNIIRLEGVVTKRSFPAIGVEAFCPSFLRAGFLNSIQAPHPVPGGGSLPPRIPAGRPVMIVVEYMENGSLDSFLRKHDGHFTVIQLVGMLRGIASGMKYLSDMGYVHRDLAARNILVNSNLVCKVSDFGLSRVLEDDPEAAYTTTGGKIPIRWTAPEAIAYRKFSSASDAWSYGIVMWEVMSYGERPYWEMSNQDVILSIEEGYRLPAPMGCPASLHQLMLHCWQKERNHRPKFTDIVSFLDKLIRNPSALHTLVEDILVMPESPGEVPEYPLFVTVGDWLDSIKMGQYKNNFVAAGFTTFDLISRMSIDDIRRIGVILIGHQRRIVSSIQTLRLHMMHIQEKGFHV
Method: as §2, §1, §3

Human EphA5 = Human EphA5 (Homo sapiens, UniProt P54756); experiment: SPR homologue panel, EphA5; conditions: human EphA5, n=1; read-out: KD, no binding up to
Human EphA5, sequence (P54756 25-1037): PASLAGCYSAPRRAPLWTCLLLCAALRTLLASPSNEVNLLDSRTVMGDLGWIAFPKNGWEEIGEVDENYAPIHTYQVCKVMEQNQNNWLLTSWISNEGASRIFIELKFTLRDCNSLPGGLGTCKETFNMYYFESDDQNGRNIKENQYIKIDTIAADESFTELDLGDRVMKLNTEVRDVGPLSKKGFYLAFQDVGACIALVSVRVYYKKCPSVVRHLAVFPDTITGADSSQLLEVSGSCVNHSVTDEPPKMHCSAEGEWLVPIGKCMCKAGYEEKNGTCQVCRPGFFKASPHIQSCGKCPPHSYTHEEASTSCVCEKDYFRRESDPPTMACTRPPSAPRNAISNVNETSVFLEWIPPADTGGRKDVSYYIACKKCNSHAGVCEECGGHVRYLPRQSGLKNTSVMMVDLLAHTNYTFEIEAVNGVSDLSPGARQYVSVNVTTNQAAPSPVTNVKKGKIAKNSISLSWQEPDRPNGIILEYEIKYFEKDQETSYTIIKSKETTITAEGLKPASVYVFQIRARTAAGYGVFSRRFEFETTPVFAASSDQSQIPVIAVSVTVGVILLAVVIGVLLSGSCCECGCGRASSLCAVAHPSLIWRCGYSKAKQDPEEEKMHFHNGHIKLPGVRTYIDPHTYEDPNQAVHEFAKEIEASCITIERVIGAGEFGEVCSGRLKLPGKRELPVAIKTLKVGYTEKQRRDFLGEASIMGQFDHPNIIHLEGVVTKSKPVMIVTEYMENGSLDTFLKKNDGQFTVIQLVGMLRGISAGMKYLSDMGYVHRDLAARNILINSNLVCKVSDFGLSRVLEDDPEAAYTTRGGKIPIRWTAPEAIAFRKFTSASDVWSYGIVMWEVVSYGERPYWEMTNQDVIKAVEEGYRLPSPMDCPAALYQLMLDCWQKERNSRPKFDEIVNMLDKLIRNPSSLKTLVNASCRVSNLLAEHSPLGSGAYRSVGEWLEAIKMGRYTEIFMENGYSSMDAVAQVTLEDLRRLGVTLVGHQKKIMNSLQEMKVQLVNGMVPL

Kd (Human EphA2; human EphA2, 25°C, read-out: KD (SPR)): 0.00193 ± 0.00035 µM
kon (Human EphA2; human EphA2, n=2, read-out: ka): 1.82e+06 M⁻¹ s⁻¹
Kd (Human EphA3): > 5 µM
Kd (Human EphA6): > 5 µM
Kd (Human EphA5): > 5 µM
Compound: CC(C)C[C@@H]1NC(=O)[C@@H]2CSCCC(=O)N3CN(CN(C3)C(=O)CCSC[C@H](NC(=O)[C@H](CC(=O)O)NC(=O)[C@H](CCCCNC(=N)N)NC(=O)[C@H](C)NC(=O)CN(C)C(=O)CN(C)C(=O)CN(C)C(=O)CN(C)C(=O)CN(C)C(=O)CN(C)C(=O)CN(C)C(=O)CN(C)C(=O)CN(C)C(=O)CN(C)C(=O)CCNC(=O)CN3CCN(CC(=O)O)CCN(CC(=O)O)CCN(CC(=O)O)CC3)C(=O)N3C[C@H](O)C[C@H]3C(=O)N[C@@H](CC3CCC3)C(=O)N[C@@H](C(C)C)C(=O)N[C@@H](CC(N)=O)C(=O)N3CCC[C@H]3C(=O)N[C@@H](CC(C)C)C(=O)N2)C(=O)CCSC[C@@H](C(N)=O)NC(=O)[C@H](CCCCNC(=N)N)NC(=O)[C@H](Cc2c[nH]c3ccccc23)NC(=O)[C@@H](CC(=O)O)NC(=O)[C@@H]2CCCN2C(=O)[C@H](Cc2c[nH]cn2)NC1=O [BCY18469, [-DOTA]-[B-Ala]-[Sar10]-Ala-[HArg]-Asp-Cys-[HyP]-[Cba]-Val-Asn-Pro-Leu-Cys-Leu-His-Pro-[dAsp]-Trp-[HArg]-Cys-CONH2] ({DOTA-βAla}-[Sar][Sar][Sar][Sar][Sar][Sar][Sar][Sar][Sar][Sar]A[hArg]DC[Hyp][Cba]VNPLCLHP[dD]W[hArg]C-NH2; linker 14-21-28 via TATA)
